Measurements reported in patent US20260317319A1, “NOVEL ERGOLINES AND METHODS OF TREATING MOOD DISORDERS” (Gilgamesh Pharma Inc., priority 2023, published 2026).
“Also recorded” adds a separate entry of the source.

Tests used:
C57BL/6 mice [1] = test: Mouse head twitch response (HTR) assay (observer-counted); assay type: in vivo; details: SC; for efficacy in HTR assay: maximal effect; for # HTR/20 min at Most Efficacious Dose: most efficacious dose 3.2 mg/kg
Method: Agonists of the 5-HT2A receptor are well known to induce this effect in rodents and the potency of this HTR is correlated with hallucinogenic potency in humans.
Animals. Adult male C57BL/6 mice, aged 6-8 weeks (body weight 20-25 g) were used in this experiment. Animals were housed under controlled temperatures and 12-hour light/dark cycles (lights on between 07:00-19:00 h), with ad libitum food and water. This study was carried out in strict accordance with the requirements of the Committee for the Purpose of Control and Supervision of Experiments on Animals (CPCSEA), India. All efforts were made to minimize suffering.
Procedure. Mice were administered one dose of the drug and immediately placed into a small open field for behavioral observation. Animals were observed continuously for 20 mins and the number of head twitches (HTs) were counted by an observer blind to the treatment condition.
Statistical Analysis. The data points shown are the mean±standard error of the mean (SEM). Analysis was performed using GraphPad Prism 6. Curves were fit using a non-linear gaussian distribution to calculate ED50 and Emax values.
Additional disclosed compounds were tested in the mouse head twitch response (HTR) assay according to the procedure described in Example 57 (administered SC). […] Lastly, compounds with much larger benzyl and phenethyl substituents on the amine nitrogen (e.g., 10 and 11) were low efficacy in this assay, consistent with their bias toward arrestin signaling (see Example 55).

C57BL/6 mice [2] = test: Automated mouse head twitch response (HTR) assay (video tracking); assay type: in vivo; details: for # HTR/20 min at Most Efficacious Dose / Most Efficacious Dose for Peak HTR/min / Most Efficacious Dose for # HTR/20 min / Peak HTR/min at Most Efficacious Dose: sc
Method: Disclosed compounds were tested for their ability to induce a head twitch response (HTR) in mice using an automated video tracking procedure, with the results summarized in Table 8 and FIG. 4.
Animals. Adult male C57BL/6 mice aged 8-10 weeks (Jackson Labs, Bar Harbor, ME; body weight 18-25 g) were used in this experiment. Animals were group housed under environmentally controlled temperatures and 12-hour light/dark cycles (lights on between 06:00-18:00 h), with ad libitum food and water. Mice were habituated to the facility for at least 5 days prior to testing. All animal procedures were approved by the local IACUC and conducted in accordance with the NIH Guide for the Care and Use of Laboratory Animals.
Procedure. Mice were administered one dose of the drug and immediately placed into a small open field for behavioral observation. High-speed video of animals' behavior was captured continuously for 20 min. Video recordings were imported into an image processing software, which detects multiple points of interest on each animal's body, including the left and right ear. HTR events were defined as periodic deviations of ear locations from temporally averaged ear locations. Predefined thresholds for magnitude and frequency of location deviations were used to filter HTR events from random head movements. The method was validated by comparing detected events with manual (human) observations and found to have an accuracy >95%. The total number of HTR events counted during the 20-min recording and the rate in HTR/min calculated over 2-min bins were determined for each animal at each dose.
Statistical Analysis. The data points shown are the mean±standard error of the mean (SEM).

D2 dopamine receptor = target: T1, D2 dopamine receptor (Homo sapiens, UniProt P14416); test: Ca2+ flux functional assay at D2; assay type: cell-based; details: for Emax: agonist, Ca2+ flux, max dose, read-out: D2 % Act @ Max Dose; for maximal efficacy at D2: compared to the N-methyl compound LSD
T1 construct: expressed in transfected cells
T1 sequence (P14416 whole entry): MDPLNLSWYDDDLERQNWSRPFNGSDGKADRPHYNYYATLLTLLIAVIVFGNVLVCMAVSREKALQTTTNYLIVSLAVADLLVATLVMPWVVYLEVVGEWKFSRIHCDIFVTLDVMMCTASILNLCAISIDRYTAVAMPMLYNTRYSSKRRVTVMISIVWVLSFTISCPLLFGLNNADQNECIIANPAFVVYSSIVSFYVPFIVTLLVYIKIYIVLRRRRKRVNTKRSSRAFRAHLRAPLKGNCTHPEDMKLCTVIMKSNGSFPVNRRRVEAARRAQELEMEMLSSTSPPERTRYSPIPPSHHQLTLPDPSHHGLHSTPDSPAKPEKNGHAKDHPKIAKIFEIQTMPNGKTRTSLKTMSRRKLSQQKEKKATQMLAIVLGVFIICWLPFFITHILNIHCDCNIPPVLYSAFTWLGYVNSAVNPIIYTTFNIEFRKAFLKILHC
Method: Disclosed compounds were tested for agonist activity at several adrenergic (Alpha1A and Alpha2A) and dopamine (D1 and D2) receptor subtypes using Ca^2+ flux functional assays, with the results summarized in Table 6. Selectivity for the 5-HT2A receptor over these other targets varied depending on the specific target and compound.
(§1) Functional Assays at Adrenergic and Dopamine Receptors. Agonist activity at Alpha1A, Alpha2A, D1, and D2 receptors was determined using a FLIPR Ca^2+ flux assay at WuXi AppTec (Hong Kong) Limited according to their standard protocols. Briefly, stably transfected cells expressing the receptor of interest were grown and plated in a 384 well plate and incubated at 37° C. and 5% CO2 overnight. A solution of 250 mM probenecid in 1 mL FLIPR assay buffer was prepared fresh. This was combined with a fluorescent dye (Fluo-4 Direct™) to make a final assay concentration of 2.5 mM. Compounds were diluted 1:3.16 for 10 points and 750 nL was added to a 384 well compound plate using ECHO along with 30 μL assay buffer. The fluorescent dye was then added to the assay plate along with assay buffer to a final volume of 40 μL. The cell plate was incubated for 50 min at 37° C. and 5% CO2 and placed into the FLIPR Tetra along with the compound plate. 10 μL of references and compounds were then transferred from the compound plate into the cell plate and the fluorescent signal was read.

[3] = target: T2, Alpha2A adrenergic receptor (Homo sapiens, UniProt P08913); test: Ca2+ flux functional assay at Alpha2A; assay type: cell-based; details: for maximal efficacy at Alpha2A: "higher" is compared to the N-methyl compound LSD; for Emax: agonist, Ca2+ flux, max dose, read-out: Alpha 2A % Act @ Max Dose
T2 construct: expressed in transfected cells
T2 sequence (P08913 1-465): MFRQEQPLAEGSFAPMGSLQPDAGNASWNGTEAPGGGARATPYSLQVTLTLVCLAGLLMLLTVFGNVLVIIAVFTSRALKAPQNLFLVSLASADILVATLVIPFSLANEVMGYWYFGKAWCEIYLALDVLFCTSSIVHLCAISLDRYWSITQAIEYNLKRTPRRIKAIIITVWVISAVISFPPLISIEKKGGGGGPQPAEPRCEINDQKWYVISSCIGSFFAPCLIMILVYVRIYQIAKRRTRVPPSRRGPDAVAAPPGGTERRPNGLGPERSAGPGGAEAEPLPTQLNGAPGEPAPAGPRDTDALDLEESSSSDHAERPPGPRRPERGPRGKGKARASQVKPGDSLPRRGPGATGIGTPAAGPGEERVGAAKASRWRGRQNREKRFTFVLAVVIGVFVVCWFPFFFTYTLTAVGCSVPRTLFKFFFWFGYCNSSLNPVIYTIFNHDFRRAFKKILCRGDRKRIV
Method: as §1, with “Compounds were diluted 1:3.16 for 10 points and 750 nL was added to a 384 well compound plate using ECHO along with 30 μL assay buffer.” left out

[4] = 20 min recording, mean, at each compound's most efficacious dose (35*, 43*, 44*: suppressed below vehicle 14.5, dose is that of least suppression)
[5] = dose giving highest peak HTR/min (35*, 43*, 44*: dose that resulted in the least suppression)
[6] = dose giving most HTR/20 min (35*, 43*, 44*: dose that resulted in the least suppression)
[7] = rate over 2-min bins, mean, at each compound's most efficacious dose (35*, 43*, 44*: suppressed below vehicle 1.62, dose is that of least suppression)

SMILES | # HTR/20 min at Most Efficacious Dose (C57BL/6 mice [2]; [4]) | Most Efficacious Dose for Peak HTR/min (C57BL/6 mice [2]; [5]) | Most Efficacious Dose for # HTR/20 min (C57BL/6 mice [2]; [6]) | Peak HTR/min at Most Efficacious Dose (C57BL/6 mice [2]; [7]) | Emax (D2 dopamine receptor) | maximal efficacy at Alpha2A [3] | other results
CC[C@@H](C)NC(=O)[C@@H]1C=C2c3cccc4[nH]cc(c34)C[C@H]2N(C)C1 [Int8] | 23.625 HTR/20 min | (0.32) mg/kg, sc | (0.32) mg/kg, sc | 2.06 HTR/min | – | – | HTR at most efficacious dose (bound) (C57BL/6 mice [1]; 20 min): < 15 HTR
CCN(CC)C(=O)[C@@H]1C=C2c3cccc4[nH]cc(c34)C[C@H]2N(Cc2ccccc2)C1 [Compound 82, (6aR,9R)-7-benzyl-N,N-diethyl-4,6,6a,7,8,9-hexahydroindolo[4,3-fg]quinoline-9-carboxamide] | 11.25 HTR/20 min | (0.1) mg/kg, sc | (0.1) mg/kg, sc | 0.56 HTR/min | – | – | –
CCN(CC)C(=O)[C@@H]1C=C2c3cccc4[nH]cc(c34)C[C@H]2N(C)C1 [LSD, lysergic acid diethylamide, reference compound] | – | – | – | – | 78.3% | – | head twitch response, automated (C57BL/6 mice [2]; in vivo): potent and robust increase in HTRs; # HTR/20 min at Most Efficacious Dose (C57BL/6 mice [2]; in vivo): 44.62 HTR/20 min; Most Efficacious Dose for # HTR/20 min (C57BL/6 mice [2]; in vivo): (0.1) mg/kg, sc; Most Efficacious Dose for Peak HTR/min (C57BL/6 mice [2]; in vivo): (0.032) mg/kg, sc; Peak HTR/min at Most Efficacious Dose (C57BL/6 mice [2]; in vivo): 4.13 HTR/min
C=CCN1C[C@H](C(=O)N[C@H](C)CC)C=C2c3cccc4[nH]cc(c34)C[C@H]21 [Compound 8, (6aR,9R)-7-allyl-N—((R)-sec-butyl)-4,6,6a,7,8,9-hexahydroindolo[4,3-fg]quinoline-9-carboxamide] | 21.375 HTR/20 min | (3.2) mg/kg, sc | (1) mg/kg, sc | 2.14 HTR/min | – | – | HTR at most efficacious dose (bound) (C57BL/6 mice [1]; 20 min): > 15 HTR
CCN(CC)C(=O)[C@@H]1C=C2c3cccc4[nH]cc(c34)C[C@H]2N(Cc2ccccc2OC)C1 [Compound 10, (6aR,9R)—N,N-diethyl-7-(2-methoxybenzyl)-4,6,6a,7,8,9-hexahydroindolo[4,3-fg]quinoline-9-carboxamide] | – | – | – | – | 86.9% | very low efficacy agonists | Emax [3]: 36.5%; efficacy in HTR assay (C57BL/6 mice [1]): low efficacy; # HTR/20 min at Most Efficacious Dose (C57BL/6 mice [1]): 6.5 HTR/20 min
CCCN1C[C@H](C(=O)NC(CC)CC)C=C2c3cccc4[nH]cc(c34)C[C@H]21 [Compound 6, (6aR,9R)—N-(pentan-3-yl)-7-propyl-4,6,6a,7,8,9-hexahydroindolo[4,3-fg]quinoline-9-carboxamide] | – | – | – | – | 91.7% | substantially higher maximal efficacy | maximal efficacy at D2 (D2 dopamine receptor): substantially higher maximal efficacy; HTR at most efficacious dose (bound) (C57BL/6 mice [1]; 20 min): > 15 HTR
CCN(C)C(=O)[C@@H]1C=C2c3cccc4[nH]cc(c34)C[C@H]2N(Cc2ccccc2)C1 [Compound 85, (6aR,9R)-7-benzyl-N-ethyl-N-methyl-4,6,6a,7,8,9-hexahydroindolo[4,3-fg]quinoline-9-carboxamide] | 6.625 HTR/20 min | (0.32) mg/kg, sc | (0.32) mg/kg, sc | 0.33 HTR/min | – | – | –
CCN(CC)C(=O)[C@@H]1C=C2c3cccc4[nH]cc(c34)C[C@H]2N(Cc2cccc(OC)c2)C1 [Compound 18, (6aR,9R)—N,N-diethyl-7-(3-methoxybenzyl)-4,6,6a,7,8,9-hexahydroindolo[4,3-fg]quinoline-9-carboxamide] | 7.62 HTR/20 min | (0.1) mg/kg, sc | (3.2) mg/kg, sc | 1.12 HTR/min | – | – | –
CCCN1C[C@H](C(=O)N2[C@@H](C)C[C@@H]2C)C=C2c3cccc4[nH]cc(c34)C[C@H]21 [Compound 4, ((2S,4S)-2,4-dimethylazetidin-1-yl)((6aR,9R)-7-propyl-4,6,6a,7,8,9-hexahydroindolo[4,3-fg]quinolin-9-yl)methanone] | – | – | – | – | 117% | substantially higher maximal efficacy | Emax [3]: 103%; maximal efficacy at D2 (D2 dopamine receptor): substantially higher maximal efficacy; efficacy in HTR assay (C57BL/6 mice [1]): less efficacious than its N-methyl counterpart compound Int11; also recorded: lower efficacy than analogous compounds bearing other amide substituents
CCN(CC)C(=O)[C@@H]1C=C2c3cccc4[nH]cc(c34)C[C@H]2N(CCc2ccccc2OC)C1 [Compound 11, (6aR,9R)—N,N-diethyl-7-(2-methoxyphenethyl)-4,6,6,7,8,9-hexahydroindolo[4,3-fg]quinoline-9-carboxamide] | – | – | – | – | – | very low efficacy agonists | ED50 (HTR) (C57BL/6 mice [1]; 20 min, curve fit poor in some cases): 2.205 mg/kg; Emax, HTR/20 min (C57BL/6 mice [1]; curve fit poor in some cases): 19.79 HTR/20 min; efficacy in HTR assay (C57BL/6 mice [1]): low efficacy; # HTR/20 min at Most Efficacious Dose (C57BL/6 mice [1]): 12.0 HTR/20 min
CCN(CC)C(=O)[C@@H]1C=C2c3cccc4[nH]cc(c34)C[C@H]2N(Cc2ccc(OC)cc2)C1 [Compound 19, (6aR,9R)—N,N-diethyl-7-(4-methoxybenzyl)-4,6,6a,7,8,9-hexahydroindolo[4,3-fg]quinoline-9-carboxamide] | 9.50 HTR/20 min | (1) mg/kg, sc | (10) mg/kg, sc | 1.31 HTR/min | – | – | –
